Tested on: vancomycin resistant E. faecium (VRE) (ATCC 51559)
Test: Antibacterial activity (MIC), modified micro-dilution broth
Type: cell-based, Vancomycin resistant Enterococcus faecium
Conditions: 24 h, read-out: MIC VRE
Protocol: E. coli is cultured in Luria Bertani broth (10 g of tryptone, 5 g of yeast extract, and 10 g of NaCl in 1000 mL of sterile distilled water (pH −7) while S. aureus, P. aeruginosa and MRSA are grown in Yeast-dextrose broth (1 g of beef extract, 2 g of yeast extract, 5 g of peptone and 5 g of NaCl in 1000 mL of sterile distilled water). For E. faecium and VRE, Brain Heart Infusion broth (BHI) is used. K. pneumoniae is grown in nutrient media (3 g of beef extract and 5 g of peptone in 1000 mL of sterile distilled water). For solid media 5% agar is used along with above mentioned composition. The bacterial samples are freeze dried and stored at −80° C. 5 μl of these stocks are added to 3 mL of the nutrient broth and the culture is grown for 6 h at 37° C. prior to the experiments.
Antibacterial activity is determined with the slight modifications of standardized protocols. Water-soluble Q-PIBMI derivatives are assayed in a modified micro-dilution broth format. […] Bacteria, to be tested, grown for 6 h in the suitable media containing ˜10^9 cfu/mL (determined by spread plating method), which is then diluted to 10^5 cfu/mL using nutrient media. […] MIC value is determined by taking the average of triplicate O.D. values for each concentration and plotting it against concentration using Origin Pro 8.0 software. […]

Q: Which MIC does the source give for `CN[C@H](CC(C)C)C(=O)N[C@H]1C(=O)N[C@@H](CC(N)=O)C(=O)N[C@H]2C(=O)N[C@H]3C(=O)N[C@H](C(=O)N[C@H](C(=O)O)c4cc(O)cc(O)c4-c4cc3ccc4O)[C@H](O)c3ccc(c(Cl)c3)Oc3cc2cc(c3O[C@@H]2O[C@H](CO)[C@@H](O)[C@H](O)[C@H]2O[C@H]2C[C@](C)(N)[C@H](O)[C@H](C)O2)Oc2ccc(cc2Cl)[C@H]1O` [Vamcomycin] here?
A: Its MIC is > 156 µg/mL.

Reference: patent publication US9636356B2, “Nanoparticle compositions of antibacterial compounds and other uses thereof” (JAWAHARLAL NEHRU CENTRE FOR ADVANCED SCIENTIFIC RESEARCH, priority 2012, dated 2017)
